Experiments:
[1] = system: hyperlocomotion induced by methamphetamine in mice; test: Anti-methamphetamine effect: inhibition of hyperlocomotion induced by methamphetamine in mice; type: in vivo, Male ddY mice; conditions: Mus musculus, 0.25 h, ip, 15 min after methamphetamine 2 mg/kg sc, locomotion measured for thirty minutes
Experimental: The antipsychotic activity of the compound according to the present invention was assayed by an index the inhibitory activity on the stimulation of hyperlocomotion induced by methamphetamine in mice. Male ddY mice having a weight of 25 - 35 g were divided into groups each consisting of 3 - 6 animals. The mouse was subcutaneously administered with methamphetamine (2 mg/kg). Fifteen minutes after this administration, the compound of the present invention was intraperitoneally administered. After further fifteen minutes, the animal was then placed in a transparent acrylic box (30 cm x 30 cm x 30 cm) mounted on an apparatus to measure the locomotion for thirty minutes (MUROMACHI KIKAI, ANIMEX AUTO MK-110).

catalepsy = test: Cataleptogenic effect (extrapyramidal effect, catalepsy provoking activity) in mice; conditions: male, ddY, mouse, in vivo, ip, catalepsy observed after 20, 30 and 40 minutes
Experimental: The extrapyramidal effect of the compounds according to the present invention was assayed by an index the catalepsy provoking activity as a representative pharmacological evaluation method of the extrapyramidal effect. Male ddY mice having a body weight of 25 - 35 g which were divided into groups each consisting of 3 - 6 animals were subjected to the test. The compound of the present invention was administered intraperitoneally to observe catalepsy after 20, 30 and 40 minutes, respectively. Catalepsy was judged as positive in such cases that a mouse whose front paw was compulsorily hung up on an iron bar having a diameter of 1 mm and horizontally laid at a height of 3 cm remained in such a strained posture for more than 30 seconds. […]

dopamine-D2 receptor = biological target: T1, dopamine-D2 receptor (Rattus norvegicus, UniProt P61169); test: Binding to dopamine-D2 receptor, [3H]spiperone, P2 fraction of rat cerebral corpus striatum; conditions: read-out: Inhibition at 10^-7 M (%)
T1 construct: using a P2 fraction of a rat cerebral corpus striatum; from tissue; host or cells: rat cerebral corpus striatum, P2 membrane fraction
Experimental: The affinity of the compound of the present invention for D2 receptors was studied using a P2 fraction of a rat cerebral corpus striatum. The rat cerebral corpus striatum was homogenized in 0.32 M sucrose in an amount of 10 times that of the rat cerebral corpus striatum, and the homogenate was centrifuged at 900 x g for 10 min. […] An incubation buffer (50 mM Tris, 120 mM NaCl, 5 mM KCl, 1 mM MgCl2, 1 mM CaCl2, pH 7.4) was added to the sediment, and the mixture was then centrifuged at 39,000 x g for 20 min. The sediment was obtained as a P2 fraction. The P2 fraction was incubated at 37°C for 30 min in a buffer containing 0.1 nM [^3H]spiperone and the compound of the present invention with various concentrations. The reaction solution was filtered through a Whatman GF/B glass filter, and the amount of bound [^3H]spiperone was measured by a liquid scintillation counter.

serotonin-5-HT2 receptor = biological target: T2, serotonin-5-HT2 receptor (Rattus norvegicus, UniProt P14842); test: Binding to serotonin-5-HT2 receptor, [3H]ketanserin, P2 fraction of rat cerebral cortex; conditions: read-out: Inhibition at 10^-9 M (%)
T2 construct: a 5-HT2 receptor of a rat cerebral cortex; from tissue; host or cells: rat cerebral cortex, P2 membrane fraction
T2 sequence (P14842 whole entry): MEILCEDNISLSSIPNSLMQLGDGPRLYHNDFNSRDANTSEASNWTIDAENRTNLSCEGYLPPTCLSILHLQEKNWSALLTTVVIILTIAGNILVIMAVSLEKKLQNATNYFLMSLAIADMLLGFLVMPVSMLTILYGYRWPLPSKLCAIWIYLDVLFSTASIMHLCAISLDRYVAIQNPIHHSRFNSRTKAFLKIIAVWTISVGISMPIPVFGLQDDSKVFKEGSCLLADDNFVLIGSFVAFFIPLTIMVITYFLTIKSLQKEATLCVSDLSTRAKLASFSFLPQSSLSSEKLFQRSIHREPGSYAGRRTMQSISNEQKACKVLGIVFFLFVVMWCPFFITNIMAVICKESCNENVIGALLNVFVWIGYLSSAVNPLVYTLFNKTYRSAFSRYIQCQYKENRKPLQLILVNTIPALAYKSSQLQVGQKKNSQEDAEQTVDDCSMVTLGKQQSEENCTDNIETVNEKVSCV
Experimental: The affinity of the compound of the present invention for a 5-HT2 receptor of a rat cerebral cortex was assayed as follows. A P2 fraction was prepared in the same manner as described above in connection with the above (a). The P2 fraction was incubated at 37°C for 15 min in a 50 mM Tris/HCl buffer (pH 7.4) containing 1 nM [^3H]ketanserin and the compound of the present invention with various concentrations, and the amount of bound [^3H]ketanserin was then measured.

T1 sequence (P61169 whole entry): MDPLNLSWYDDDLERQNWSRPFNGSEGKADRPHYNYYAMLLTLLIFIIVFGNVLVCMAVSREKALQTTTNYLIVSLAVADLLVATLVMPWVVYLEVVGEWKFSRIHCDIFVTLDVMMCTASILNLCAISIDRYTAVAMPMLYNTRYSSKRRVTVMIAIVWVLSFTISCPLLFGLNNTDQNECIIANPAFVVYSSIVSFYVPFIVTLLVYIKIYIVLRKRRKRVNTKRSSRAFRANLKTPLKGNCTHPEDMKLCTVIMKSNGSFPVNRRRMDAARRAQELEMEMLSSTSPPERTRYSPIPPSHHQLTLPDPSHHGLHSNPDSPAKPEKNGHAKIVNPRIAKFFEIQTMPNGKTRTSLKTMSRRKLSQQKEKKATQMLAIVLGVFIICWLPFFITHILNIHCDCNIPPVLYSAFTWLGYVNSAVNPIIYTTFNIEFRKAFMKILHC

inhibition at 0.1 µM (dopamine-D2 receptor) [%] | SMILES | ED50 [1] [mg/kg] | ED50 (catalepsy) [mg/kg] | inhibition at 0.001 µM (serotonin-5-HT2 receptor) [%]
 | CN(C)CCCN1c2ccccc2Sc2ccc(Cl)cc21 [Chlorpromazine, chlorpromazine, reference compound] | 1.1 | 6.2 | 
 | Cc1cc(=O)n2c(C)c(CCN3CCC(c4noc5cc(F)ccc45)CC3)sc2n1 [Example 4, 3,7-Dimethyl-2-[2-[4-(6-fluoro-1,2-benzisoxazol-3-yl)-1-piperidinyl]ethyl]-5H-thiazolo[3,2-a]pyrimidin-5-one] | 0.07 | 1.2 | 
95.2 | Cc1cc(=O)n2c(C)c(CCN3CCC(c4csc5cc(F)ccc45)CC3)sc2n1 [Example 8, 3,7-Dimethyl-2-[2-[4-(6-fluoro-1-benzothiophen-3-yl)-1-piperidinyl]ethyl]-5H-thiazolo[3,2-a]pyrimidin-5-one] |  |  | 
 | Cc1cn2c(C)c(CCN3CCC(c4noc5cc(F)ccc45)CC3)sc2n1 [Example 11, 3,6-Dimethyl-2-[2-[4-(6-fluoro-1,2-benzisoxazol-3-yl)-1-piperidinyl]ethyl]imidazo[2,1-b]thiazole] | 0.12 | 3.3 | 
 | Cc1cc(=O)n2c(CCN3CCC(c4noc5cc(F)ccc45)CC3)csc2n1 [Example 20, 3-[2-[4-(6-Fluoro-1,2-benzisoxazol-3-yl)-1-piperidinyl]ethyl]-5H-7-methylthiazolo[3,2-a]pyrimidin-5-one] | 0.04 |  | 66.3
 | O=C(CCCN1CCC(O)(c2ccc(Cl)cc2)CC1)c1ccc(F)cc1 [Haloperidol, haloperidol, reference compound] | 0.2 | 1.3 | 

Source: EP0794185A1, “BICYCLIC THIAZOLE COMPOUND” (MEIJI SEIKA KABUSHIKI KAISHA, priority 1994, dated 1996)
